System: HCV 1b genotype
Experiment: HCV Replicon assay (HCV-neo replicon cells, wild-type)
Format: cell-based
Settings: HCV 1b genotype replicon
Procedure: An HCV Replicon assay was utilized in the present disclosure, and was prepared, conducted and validated as described in commonly owned PCT/US2006/022197 and in O'Boyle et. al. Antimicrob Agents Chemother. 2005 April; 49 (4):1346-53. Assay methods incorporating luciferase reporters have also been used as described (Apath.com).
HCV-neo replicon cells and replicon cells containing mutations in the NS5A region were used to test the currently described family of compounds. The compounds were determined to have more than 10-fold less inhibitory activity on cells containing mutations than wild-type cells. Thus, the compounds of the present disclosure can be effective in inhibiting the function of the HCV NS5A protein and are understood to be as effective in combinations as previously described in application PCT/US2006/022197 and commonly owned WO/O4014852. Further, the compounds of the present disclosure can be effective against the HCV 1b genotype. It should also be understood that the compounds of the present disclosure can inhibit multiple genotypes of HCV. […] In one embodiment, compounds of the present disclosure are inhibitory versus 1a, 1b, 2a, 2b, 3a, 4a, and 5a genotypes.

[1] = Hepatitis C virus, class symbols

Compound	EC50 [1] [nM]	also measured
CN(C)C(C(=O)N1CCC[C@H]1c1nc2ccc(-c3ccc4[nH]c([C@@H]5CCCN5C(=O)[C@@H](c5ccccc5)N(C)C)nc4c3)cc2[nH]1)c1ccccc1 (stereo partly drawn) [Example F1, (1R,1′R)-2,2′-(1H,1′H-5,5′-bibenzimidazole-2,2′-diyldi(2S)-2,1-pyrrolidinediyl)bis(N,N-dimethyl-2-oxo-1-phenylethanamine)]	< 4.57	
CC(=O)N1CCC[C@H]1c1nc2ccc(C#Cc3ccc4[nH]c([C@@H]5CCCN5C(=O)c5cccs5)nc4c3)cc2[nH]1 [Example M54.24, 5-((2-((2S)-1-acetyl-2-pyrrolidinyl)-1H-benzimidazol-6-yl)ethynyl)-2-((2S)-1-(2-thienylcarbonyl)-2-pyrrolidinyl)-1H-benzimidazole]	4.57 to 99	
C[C@@](O)(C(=O)N1CCC[C@H]1c1nc2cc(-c3cnc(-c4ccc5nc([C@@H]6CCCN6C(=O)[C@@](C)(O)c6ccccc6)[nH]c5c4)o3)ccc2[nH]1)c1ccccc1 [Example J18, (2S)-1-((2S)-2-(5-(2-(2-((2S)-1-((2S)-2-hydroxy-2-phenyl-propanoyl)-2-pyrrolidinyl)-1H-benzimidazol-6-yl)-1,3-oxazol-5-yl)-1H-benzimidazol-2-yl)-1-pyrrolidinyl)-1-oxo-2-phenyl-2-propanol]	< 4.57	
O=C(CC1CC1)N1CCC[C@H]1c1nc2ccc(C#Cc3ccc4[nH]c([C@@H]5CCCN5C(=O)[C@H]5CCCO5)nc4c3)cc2[nH]1 [Example M52, 5-((2-((2S)-1-(cyclopropylacetyl)-2-pyrrolidinyl)-1H-benzimidazol-6-yl)ethynyl)-2-((2S)-1-((2R)-tetrahydro-2-furanylcarbonyl)-2-pyrrolidinyl)-1H-benzimidazole]	4.57 to 99	
O=C([C@@H](c1ccccc1)N1CCOCC1)N1CCC[C@H]1c1nc2cc(C#Cc3ccc4[nH]c([C@@H]5CCCN5C(=O)[C@@H](c5ccccc5)N5CCOCC5)nc4c3)ccc2[nH]1 [Example M22, 5,5′-(1,2-ethynediyl)bis(2-((2S)-1-((2R)-2-(4-morpholinyl)-2-phenylacetyl)-2-pyrrolidinyl)-1H-benzimidazole)]	< 4.57	
CC(C)C(=O)N1CCC[C@H]1c1nc2ccc(C#Cc3ccc4[nH]c([C@@H]5CCCN5C(=O)[C@H]5CCCO5)nc4c3)cc2[nH]1 [Example M54.8, 5-((2-((2S)-1-isobutyryl-2-pyrrolidinyl)-1H-benzimidazol-6-yl)ethynyl)-2-((2S)-1-((2R)-tetrahydro-2-furanylcarbonyl)-2-pyrrolidinyl)-1H-benzimidazole]	4.57 to 99	
O=C([C@@H]1CCCO1)N1CCC[C@H]1c1nc2cc(C#Cc3ccc4[nH]c([C@@H]5CCCN5C(=O)[C@@H]5CCCO5)nc4c3)ccc2[nH]1 [Example M26.5]		EC50 (class symbols): 100 to 999 nM
O=C([C@@H](O)c1ccccc1)N1CCC[C@H]1c1nc2cc(-c3ccc(-c4ccc5[nH]c([C@@H]6CCCN6C(=O)[C@@H](O)c6ccccc6)nc5c4)o3)ccc2[nH]1 [JG3, (1S,1′S)-2,2′-(2,5-furandiylbis(1H-benzimidazole-5,2-diyl(2S)-2,1-pyrrolidinediyl))bis(2-oxo-1-phenylethanol)]	4.57 to 99	
O=C(Cc1ccccc1)N1C[C@@H](N2CCOCC2)C[C@H]1c1nc2cc(C#Cc3ccc4[nH]c([C@@H]5C[C@H](N6CCOCC6)CN5C(=O)Cc5ccccc5)nc4c3)ccc2[nH]1 [Example M37.3, 5,5′-(1,2-ethynediyl)bis(2-((2S,4S)-4-(4-morpholinyl)-1-(phenylacetyl)-2-pyrrolidinyl)-1H-benzimidazole)]	4.57 to 99	
COC(=O)N[C@@H](C(=O)N1[C@@H]2C[C@@H]2C[C@H]1c1nc2cc(-c3ccc(Oc4cccc5[nH]c([C@@H]6C[C@H]7C[C@H]7N6C(=O)[C@H](NC(=O)OC)C(C)C)nc45)cc3)ccc2[nH]1)C(C)C [Example V7, methyl ((1R)-1-(((1R,3S,5R)-3-(4-(4-(2-((1R,3S,5R)-2-((2R)-2-(methoxycarbonyl)amino)-3-methylbutanoyl)-2-azabicyclo[3.1.0]hex-3-yl)-1H-benzimidazol-5-yl)phenoxy)-1H-benzimidazol-2-yl)-2-azabicyclo[3.1.0]hex-2-yl)carbonyl)-2-methylpropyl) carbamate]		EC50 (class symbols): 4.57 to 99 nM
COc1cccc2c(C(=O)N3CCC[C@H]3c3nc4cc(-c5cnc(-c6ccc7nc([C@@H]8CCCN8C(=O)c8nc(Cl)cc9c(OC)cccc89)[nH]c7c6)o5)ccc4[nH]3)nc(Cl)cc12 [Example J22, 3-chloro-1-(((2S)-2-(5-(2-(2-((2S)-1-((3-chloro-5-methoxy-1-isoquinolinyl)carbonyl)-2-pyrrolidinyl)-1H-benzimidazol-6-yl)-1,3-oxazol-5-yl)-1H-benzimidazol-2-yl)-1-pyrrolidinyl)carbonyl)-5-methoxy-isoquinoline]	1000 to 10000	
O=C(C1CCC1)N1CCC[C@H]1c1nc2cc(CCc3ccc4nc([C@@H]5CCCN5C(=O)C5CCC5)[nH]c4c3)ccc2[nH]1 [Example M45, 2-((2S)-1-(cyclobutylcarbonyl)-2-pyrrolidinyl)-5-(2-(2-((2S)-1-(cyclobutylcarbonyl)-2-pyrrolidinyl)-1H-benzimidazol-6-yl)ethyl)-1H-benzimidazole]	100 to 999	
COC(=O)N[C@H](C(=O)N1[C@@H]2C[C@@H]2C[C@H]1c1nc2ccc(-c3ccc(-c4ccc5nc([C@@H]6C[C@H]7C[C@H]7N6C(=O)[C@@H](NC(=O)OC)C(C)C)[nH]c5c4)cc3)cc2[nH]1)C(C)C [Example M46, methyl((1S)-1-(((1R,3S,5R)-3-(6-(4-(2-((1R,3S,5R)-2-((2S)-2-((methoxycarbonyl)amino)-3-methylbutanoyl)-2-azabicyclo[3.1.0]hex-3-yl)-1H-benzimidazol-6-yl)phenyl)-1H-benzimidazol-2-yl)-2-azabicyclo[3.1.0]hex-2-yl)carbonyl)-2-methylpropyl)carbamate]		EC50 (Hepatitis C virus, numeric values): 0.006 nM
COC(=O)NC(C(=O)N1[C@@H]2C[C@@H]2C[C@H]1c1nc2cc(-c3ccc(Oc4cccc5[nH]c([C@@H]6C[C@H]7C[C@H]7N6C(=O)C(NC(=O)OC)c6ccccc6)nc45)cc3)ccc2[nH]1)c1ccccc1 (stereo partly drawn) [Example V9, methyl (2-((1R,3S,5R)-3-(5-(4-((2-((1R,3S,5R)-2-(((methoxycarbonyl)amino)(phenyl)acetyl)-2-azabicyclo[3.1.0]hex-3-yl)-1H-benzimidazol-4-yl)oxy)phenyl)-1H-benzimidazol-2-yl)-2-azabicyclo[3.1.0]hex-2-yl)-2-oxo-1-phenylethyl) carbamate]		EC50 (class symbols): < 4.57 nM
COc1ccc(C)cc1C(=O)N1CCC[C@H]1c1nc2ccc(C#Cc3ccc4[nH]c([C@@H]5CCCN5C(=O)[C@H]5CCCO5)nc4c3)cc2[nH]1 [Example M54.14, 5-((2S-((2S)-1-(2-methoxy-5-methylbenzoyl)-2-pyrrolidinyl)-1H-benzimidazol-6-yl)ethynyl)-2-((2S)-1-((2R)-tetrahydro-2-furanylcarbonyl)-2-pyrrolidinyl)-1H-benzimidazole]		EC50 (class symbols): 100 to 999 nM
CCO[C@@H]1C[C@@H](c2nc3cc(CCc4ccc5nc([C@@H]6C[C@@H](OCC)CN6C(=O)OCc6ccccc6)[nH]c5c4)ccc3[nH]2)N(C(=O)OCc2ccccc2)C1 [Example F5, benzyl (2S,4R)-2-(5-(2-(2-((2S,4R)-1-((benzyloxy)carbonyl)-4-ethoxy-2-pyrrolidinyl)-1H-benzimidazol-6-yl)ethyl)-1H-benzimidazol-2-yl)-4-ethoxy-1-pyrrolidinecarboxylate]	4.57 to 99	

Reference: patent US7906655B2, “Hepatitis C virus inhibitors” (Bristol-Myers Squibb Company, priority 2008, dated 2011)
